Measurements published in ChEMBL document CHEMBL4376882, “Photodynamic Therapy for ras-Driven Cancers: Targeting G-Quadruplex RNA Structures with Bifunctional Alkyl-Modified Porphyrins” (J Med Chem, 2020).
Active and inactive are the calls of the source. No cut-off for these calls is given here.

What was measured:
Quadruplex DNA [1] = assay: Binding affinity to human KRAS utr-z RNA g-quadruplex assessed as compound-RNA complex stoichiometry ratio of 1:1 by Job's plot analysis; format: nucleic-acid assay
[2] = Binding affinity to 20-mer stem-loop RNA (unknown origin) assessed as compound-RNA complex stoichiometry ratio of 2:1 by Job's plot analysis
Quadruplex DNA [3] = assay: Binding affinity to human KRAS utr-z RNA g-quadruplex assessed as compound-RNA complex stoichiometry ratio of 4:1 by Job's plot analysis; format: nucleic-acid assay
[4] = Drug uptake in human PANC1 cells in presence of dynamin-inhibitor dynasore; format: ADME, cell-based; conditions: panc-1
[5] = molecular target: GTPase NRas (Homo sapiens) (UniProt P01111); assay: Inhibition of NRAS in human PANC1 cells assessed as downregulation of NRAS expression at 15 nM after 4 hrs by Western blot analysis; format: cell-based
[6] = Drug uptake in mouse NIH/3T3 cells at 5 uM and 4 degree C after 16 hrs by FACS analysis relative to 37 degree C; format: ADME, cell-based; conditions: nih3t3, 16 h
[7] = Drug uptake in human HEK293 cells at 5 uM and 4 degree C after 16 hrs by FACS analysis relative to 37 degree C; format: ADME, cell-based; conditions: hek293, 16 h
HEK293 = assay: Cytotoxicity against human HEK293 cells assessed as reduction in metabolic activity after 24 to 72 hrs in dark followed by photoirradiation in presence of NADH by resazurin assay; format: ADME, cell-based
Quadruplex DNA [8] = assay: Binding affinity to NRAS RNA g-quadruplex (unknown origin) by fluorescence spectroscopy; format: nucleic-acid assay
PANC-1 [9] = assay: Induction of apoptosis in human PANC1 cells assessed as necrotic cells at 10 nM and photoirradiated at 7.2 J/cm2 measured after 6 to 24 hrs by annexin-V-propidium iodide staining based FACScalibur flow cytometry analysis (reference value: 3.2 %); format: functional
[10] = Binding affinity to NRAS RNA g-quadruplex (unknown origin) at 40 degree C by SPR analysis; format: nucleic-acid assay
MIA PaCa-2 = assay: Cytotoxicity against human MIAPaCa2 cells harboring G12C point mutation assessed as reduction in metabolic activity after 48 hrs in dark followed by photoirradiation in presence of NADH by resazurin assay; format: functional, cell-based
[11] = Drug uptake in human PANC1 cells at 5 uM after 16 hrs by FACS analysis; format: ADME, cell-based; conditions: panc-1, 16 h
[12] = Drug uptake in human PANC1 cells at 5 uM after 2 hrs by FACS analysis; format: ADME, cell-based; conditions: panc-1, 2 h
[13] = Aggregation property of compound at > 40 degree C; format: physicochemical
[14] = Drug localization in cytoplasm of human PANC1 cells at 5 uM after 6 hrs by Hoechst staining based confocal microscopy; format: ADME, subcellular; conditions: panc-1, 6 h
PANC-1 [15] = assay: Cytotoxicity against human PANC1 cells assessed as reduction in metabolic activity at 20 nM after 24 to 72 hrs in dark followed by photoirradiation in presence of NADH by resazurin assay; format: functional, cell-based
[16] = molecular target: GTPase NRas (Homo sapiens) (UniProt P01111); assay: Inhibition of NRAS in human PANC1 cells assessed as downregulation of NRAS expression at 15 nM followed by 7.2 J/cm2 irradiation after 4 hrs by Western blot analysis (reference value: 25 %); format: cell-based
Quadruplex DNA [17] = assay: Binding affinity to human KRAS utr-z RNA g-quadruplex at 40 degree C by SPR analysis; format: nucleic-acid assay
PANC-1 [18] = assay: Cytotoxicity against human PANC1 cells assessed as reduction in metabolic activity after 48 hrs in dark followed by photoirradiation in presence of NADH by resazurin assay; format: functional, cell-based; conditions: PANC-1, light or radiation study
PANC-1 [19] = assay: Induction of apoptosis in human PANC1 cells assessed as cleavage of PARP1 when photoirradiated at 7.2 J/cm2 by Western blot analysis; format: functional, cell-based
[20] = molecular target: GTPase KRas (Homo sapiens) (UniProt P01116); assay: Inhibition of KRAS in human PANC1 cells assessed as decrease in KRAS mRNA level at 15 nM followed by 7.2 J/cm2 irradiation after 4 hrs by qRT-PCR analysis; format: cell-based
PANC-1 [21] = assay: Induction of apoptosis in human PANC1 cells assessed as viable cells at 5 nM and photoirradiated at 7.2 J/cm2 measured after 6 to 24 hrs by annexin-V-propidium iodide staining based FACScalibur flow cytometry analysis (reference value: 85.5 %); format: functional; conditions: PANC-1, light or radiation study, read-out: Activity
Quadruplex DNA [22] = assay: Binding affinity to human KRAS utr-z RNA g-quadruplex assessed as compound-RNA complex stoichiometry ratio of 9:1 by Job's plot analysis; format: nucleic-acid assay
Quadruplex DNA [23] = assay: Binding affinity to human KRAS utr-z RNA g-quadruplex by fluorescence spectroscopy; format: nucleic-acid assay
PANC-1 [24] = assay: Cytotoxicity against human PANC1 cells assessed as reduction in metabolic activity at 20 nM after 24 to 72 hrs in dark followed by photoirradiation in presence of NADH and NAC by resazurin assay; format: functional, cell-based
PANC-1 [25] = assay: Induction of apoptosis in human PANC1 cells assessed as early apoptotic cells at 10 nM and photoirradiated at 7.2 J/cm2 measured after 6 to 24 hrs by annexin-V-propidium iodide staining based FACScalibur flow cytometry analysis (reference value: 7.8 %); format: functional
PANC-1 [26] = assay: Induction of apoptosis in human PANC1 cells assessed as viable cells at 10 nM and photoirradiated at 7.2 J/cm2 measured after 6 to 24 hrs by annexin-V-propidium iodide staining based FACScalibur flow cytometry analysis (reference value: 85.5 %); format: functional; conditions: PANC-1, light or radiation study, read-out: Activity
PANC-1 [27] = assay: Induction of apoptosis in human PANC1 cells assessed as late apoptotic cells at 10 nM and photoirradiated at 7.2 J/cm2 measured after 6 to 24 hrs by annexin-V-propidium iodide staining based FACScalibur flow cytometry analysis (reference value: 3.6 %); format: functional
PANC-1 [28] = assay: Induction of apoptosis in human PANC1 cells assessed as late apoptotic cells at 15 nM and photoirradiated at 7.2 J/cm2 measured after 6 to 24 hrs by annexin-V-propidium iodide staining based FACScalibur flow cytometry analysis (reference value: 3.6 %); format: functional
PANC-1 [29] = assay: Induction of apoptosis in human PANC1 cells assessed as early apoptotic cells at 15 nM and photoirradiated at 7.2 J/cm2 measured after 6 to 24 hrs by annexin-V-propidium iodide staining based FACScalibur flow cytometry analysis (reference value: 7.8 %); format: functional
Quadruplex DNA [30] = assay: Binding affinity to human KRAS utr-1 RNA g-quadruplex by fluorescence spectroscopy; format: nucleic-acid assay
PANC-1 [31] = assay: Induction of apoptosis in human PANC1 cells assessed as viable cells at 15 nM and photoirradiated at 7.2 J/cm2 measured after 6 to 24 hrs by annexin-V-propidium iodide staining based FACScalibur flow cytometry analysis (reference value: 85.5 %); format: functional; conditions: PANC-1, light or radiation study, read-out: Activity
[32] = molecular target: GTPase KRas (Homo sapiens) (UniProt P01116); assay: Inhibition of KRAS in human PANC1 cells assessed as downregulation of KRAS expression at 15 nM followed by 7.2 J/cm2 irradiation after 4 hrs by Western blot analysis (reference value: 5 %); format: cell-based
Quadruplex DNA [33] = assay: Binding affinity to human KRAS utr-c RNA g-quadruplex by fluorescence spectroscopy; format: nucleic-acid assay
[34] = Drug uptake in human PANC1 cells at 5 uM and 4 degree C after 16 hrs by FACS analysis relative to 37 degree C; format: ADME, cell-based; conditions: panc-1, 16 h
PANC-1 [35] = assay: Induction of apoptosis in human PANC1 cells assessed as cleavage of caspase 3 when photoirradiated at 7.2 J/cm2 by Western blot analysis; format: functional, cell-based
PANC-1 [36] = assay: Induction of apoptosis in human PANC1 cells assessed as cleavage of caspase 7 when photoirradiated at 7.2 J/cm2 by Western blot analysis; format: functional, cell-based
PANC-1 [37] = assay: Induction of apoptosis in human PANC1 cells assessed as necrotic cells at 5 nM and photoirradiated at 7.2 J/cm2 measured after 6 to 24 hrs by annexin-V-propidium iodide staining based FACScalibur flow cytometry analysis (reference value: 3.2 %); format: functional
[38] = molecular target: GTPase NRas (Homo sapiens) (UniProt P01111); assay: Inhibition of NRAS in human PANC1 cells assessed as decrease in NRAS mRNA level at 15 nM followed by 7.2 J/cm2 irradiation after 4 hrs by qRT-PCR analysis; format: cell-based
PANC-1 [39] = assay: Induction of apoptosis in human PANC1 cells assessed as early apoptotic cells at 5 nM and photoirradiated at 7.2 J/cm2 measured after 6 to 24 hrs by annexin-V-propidium iodide staining based FACScalibur flow cytometry analysis (reference value: 7.8 %); format: functional
[40] = molecular target: GTPase KRas (Homo sapiens) (UniProt P01116); assay: Inhibition of KRAS in human PANC1 cells assessed as downregulation of KRAS expression at 15 nM after 4 hrs by Western blot analysis; format: cell-based
PANC-1 [41] = assay: Induction of apoptosis in human PANC1 cells assessed as late apoptotic cells at 5 nM and photoirradiated at 7.2 J/cm2 measured after 6 to 24 hrs by annexin-V-propidium iodide staining based FACScalibur flow cytometry analysis (reference value: 3.6 %); format: functional
PANC-1 [42] = assay: Induction of apoptosis in human PANC1 cells assessed as necrotic cells at 15 nM and photoirradiated at 7.2 J/cm2 measured after 6 to 24 hrs by annexin-V-propidium iodide staining based FACScalibur flow cytometry analysis (reference value: 3.2 %); format: functional
PANC-1 [43] = assay: Photodynamic antitumor activity against human PANC1 cells xenografted in SCID mouse assessed as reduction in tumor growth at 30 mg/kg administered intratumorally after 2 hrs photoirradiated by diode laser at 193 J/cm2 measured after 14 days by micrometer caliper method; format: functional, organism-based
PANC-1 [44] = assay: Antitumor activity against human PANC1 cells xenografted in SCID mouse assessed as reduction in tumor growth at 30 mg/kg administered intratumorally measured after 14 days by micrometer caliper method; format: functional, organism-based

Chain of GTPase NRas (Homo sapiens) (P01111 whole entry): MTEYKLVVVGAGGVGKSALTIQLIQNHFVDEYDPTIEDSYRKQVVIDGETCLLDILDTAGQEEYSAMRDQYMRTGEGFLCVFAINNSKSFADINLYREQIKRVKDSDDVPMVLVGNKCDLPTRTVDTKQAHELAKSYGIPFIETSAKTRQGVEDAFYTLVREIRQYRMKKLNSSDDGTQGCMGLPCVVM
Chain of GTPase KRas (Homo sapiens) (P01116 whole entry, looked up): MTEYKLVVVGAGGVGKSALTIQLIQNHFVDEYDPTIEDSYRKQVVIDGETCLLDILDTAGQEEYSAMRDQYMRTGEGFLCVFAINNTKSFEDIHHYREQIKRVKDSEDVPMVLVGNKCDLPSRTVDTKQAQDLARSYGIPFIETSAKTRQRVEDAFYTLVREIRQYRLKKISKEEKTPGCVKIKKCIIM

In the case of `C[n+]1ccc(-c2c3nc(c(-c4cc[n+](C)cc4)c4ccc([nH]4)c(-c4cc[n+](C)cc4)c4ccc([nH]4)c(-c4cc[n+](C)cc4)c4nc2C=C4)C=C3)cc1`, the Activity (Quadruplex DNA [1]) is reported as “Active”, the Activity [2] is reported as “Active” and the Activity (Quadruplex DNA [3]) is reported as “Active”.
In the case of `CCCCCCCCCCCCCCCCCC[n+]1ccc(-c2c3nc(c(-c4cc[n+](C)cc4)c4ccc([nH]4)c(-c4cc[n+](C)cc4)c4nc(c(-c5cc[n+](C)cc5)c5ccc2[nH]5)C=C4)C=C3)cc1.[I-].[I-].[I-].[I-]`, the Drug uptake [4] is reported as “Not Active”, the inhibition [5] is reported as “inactive” and the Drug uptake [6] is reported as “Active”. The Drug uptake [7] was “Active”, the Activity (HEK293) was “Non-Toxic” and the Kd (Quadruplex DNA [8]) was 32 nM. The Activity (PANC-1 [9]) was 4.03%, the Kd [10] was 56 to 98 nM and the Activity (MIA PaCa-2) was “Active”. For the same compound, the Drug uptake [11] was “Active”, the Drug uptake [12] was “Active” and the Activity [13] was “Active”. For the same compound, the Drug uptake [14] was “Active”, the Activity (PANC-1 [15]) was “Active” and the inhibition [16] was 50%. The Kd (Quadruplex DNA [17]) was 82 to 202 nM, the EC50 (PANC-1 [18]) was 16.4 nM and the Activity (PANC-1 [19]) was “Active”. The inhibition [20] was “Active”, the viability at 0.005 µM (PANC-1 [21]) was 78.2% and the Activity (Quadruplex DNA [22]) was “Active”. For the same compound, the Kd (Quadruplex DNA [23]) was 99 nM, the Activity (PANC-1 [24]) was “inactive” and the Activity (PANC-1 [25]) was 3.03%. The viability at 0.01 µM (PANC-1 [26]) was 81.5%, the Activity (PANC-1 [27]) was 11.43% and the Activity (PANC-1 [28]) was 15.63%. For the same compound, the Activity (PANC-1 [29]) was 3.53%, the Kd (Quadruplex DNA [30]) was 150 nM and the viability at 0.015 µM (PANC-1 [31]) was 75.1%. It also gave an inhibition [32] of 20%, a Kd (Quadruplex DNA [33]) of 188 nM and a Drug uptake [34] of 47%. For the same compound, the Activity (PANC-1 [35]) was “Active”, the Activity (PANC-1 [36]) was “Active” and the Activity (PANC-1 [37]) was 2.1%. For the same compound, the inhibition [38] was “Active”, the Activity (PANC-1 [39]) was 7.35% and the inhibition [40] was “inactive”. The Activity (PANC-1 [41]) was 12.4% and the Activity (PANC-1 [42]) was 5.77%.
In the case of `C[n+]1ccccc1-c1c2nc(c(-c3cccc[n+]3C)c3ccc([nH]3)c(-c3cccc[n+]3C)c3ccc([nH]3)c(-c3cccc[n+]3C)c3nc1C=C3)C=C2.[Cl-].[Cl-].[Cl-].[Cl-]`, the Activity (PANC-1 [43]) is reported as “inactive”, the Drug uptake [11] is reported as “Active” and the Drug uptake [12] is reported as “Not Active”. The Activity (PANC-1 [44]) was “inactive”.
